System: post-operative adult patients
Assay: Example 1: patient self-assessment of pain, VAS at rest
Format: in vivo, human
Description: Pain was measured by the patient's self-assessment using a Visual Analog Scale (VAS) from 0-10 with 0 being no pain and 10 being intense pain. This was measured both at rest and with movement. […] […] To account for the missing pain assessments, two missing value approaches as described in the statistical analysis plan were used to impute values. To determine the difference in overall pain at differing time-points, the area under the VAS pain curve during the first 24 hours, between 6 and 24 hours and between 12 and 24 hours were analyzed.

CC(C)Cc1ccc(C(C)C(=O)O)cc1 (stereo not drawn) [Ibuprofen, 2-(4-isobutylphenyl) propionic acid]
VAS Score measured at Rest, % Reduction vs Placebo (400 mg, ITT, 42-Hour): −5.0% | VAS Score measured at Rest (median) (400 mg, ITT, 45-Hour): 2.4 | VAS Score measured at Rest, % Reduction vs Placebo (400 mg, ITT, 45-Hour): −20.0% | VAS Score measured at Rest (median) (400 mg, ITT, 48-Hour): 1.6 | VAS Score measured at Rest, % Reduction vs Placebo (400 mg, ITT, 48-Hour): −6.7% | VAS Score measured at Rest (median) (800 mg, EEP, 1-Hour): 7.0 | VAS Score measured at Rest, % Reduction vs Placebo (800 mg, EEP, 1-Hour): 0.0% | VAS Score measured at Rest (median) (800 mg, EEP, 2-Hour): 6.0 | VAS Score measured at Rest, % Reduction vs Placebo (800 mg, EEP, 2-Hour): −1.7% | VAS Score measured at Rest (median) (800 mg, EEP, 3-Hour): 5.0 | VAS Score measured at Rest, % Reduction vs Placebo (800 mg, EEP, 3-Hour): 0.0% | VAS Score measured at Rest (median) (800 mg, EEP, 6-Hour): 5.0 | VAS Score measured at Rest, % Reduction vs Placebo (800 mg, EEP, 6-Hour): −25.0% | VAS Score measured at Rest (median) (800 mg, EEP, 9-Hour): 3.0 | VAS Score measured at Rest (median) (800 mg, EEP, 12-Hour): 3.0 | VAS Score measured at Rest, % Reduction vs Placebo (800 mg, EEP, 12-Hour): 0.0% | VAS Score measured at Rest (median) (800 mg, EEP, 15-Hour): 2.8 | VAS Score measured at Rest, % Reduction vs Placebo (800 mg, EEP, 15-Hour): 6.7% | VAS Score measured at Rest (median) (800 mg, EEP, 18-Hour): 2.0 | VAS Score measured at Rest, % Reduction vs Placebo (800 mg, EEP, 18-Hour): 33.3% | VAS Score measured at Rest (median) (800 mg, EEP, 21-Hour): 2.0 | VAS Score measured at Rest, % Reduction vs Placebo (800 mg, EEP, 21-Hour): 33.3% | VAS Score measured at Rest (median) (800 mg, EEP, 24-Hour): 2.0 | VAS Score measured at Rest, % Reduction vs Placebo (800 mg, EEP, 24-Hour): 33.3% | VAS Score measured at Rest (median) (800 mg, EEP, 27-Hour): 2.3 | VAS Score measured at Rest (median) (800 mg, EEP, 30-Hour): 2.4 | VAS Score measured at Rest, % Reduction vs Placebo (800 mg, EEP, 30-Hour): 14.3% | VAS Score measured at Rest (median) (800 mg, EEP, 33-Hour): 2.3 | VAS Score measured at Rest, % Reduction vs Placebo (800 mg, EEP, 33-Hour): 28.1% | VAS Score measured at Rest (median) (800 mg, EEP, 36-Hour): 2.2 | VAS Score measured at Rest, % Reduction vs Placebo (800 mg, EEP, 36-Hour): 15.4% | VAS Score measured at Rest (median) (800 mg, EEP, 39-Hour): 2.7 | VAS Score measured at Rest, % Reduction vs Placebo (800 mg, EEP, 39-Hour): −50.0% | VAS Score measured at Rest (median) (800 mg, EEP, 42-Hour): 1.8 | VAS Score measured at Rest, % Reduction vs Placebo (800 mg, EEP, 42-Hour): 10.0% | VAS Score measured at Rest (median) (800 mg, EEP, 45-Hour): 2.0 | VAS Score measured at Rest, % Reduction vs Placebo (800 mg, EEP, 45-Hour): 4.8% | VAS Score measured at Rest (median) (800 mg, EEP, 48-Hour): 1.1 | VAS Score measured at Rest (median) (800 mg, ITT, 1-Hour): 7.0 | VAS Score measured at Rest, % Reduction vs Placebo (800 mg, ITT, 1-Hour): 0.0% | VAS Score measured at Rest (median) (800 mg, ITT, 2-Hour): 5.7 | VAS Score measured at Rest, % Reduction vs Placebo (800 mg, ITT, 2-Hour): 6.6% | VAS Score measured at Rest (median) (800 mg, ITT, 3-Hour): 5.0 | VAS Score measured at Rest, % Reduction vs Placebo (800 mg, ITT, 3-Hour): 0.0% | VAS Score measured at Rest (median) (800 mg, ITT, 6-Hour): 4.0 | VAS Score measured at Rest, % Reduction vs Placebo (800 mg, ITT, 6-Hour): 0.0% | VAS Score measured at Rest (median) (800 mg, ITT, 9-Hour): 3.0 | VAS Score measured at Rest (median) (800 mg, ITT, 12-Hour): 2.9 | VAS Score measured at Rest, % Reduction vs Placebo (800 mg, ITT, 12-Hour): 3.3% | VAS Score measured at Rest (median) (800 mg, ITT, 15-Hour): 2.6 | VAS Score measured at Rest, % Reduction vs Placebo (800 mg, ITT, 15-Hour): 21.2% | VAS Score measured at Rest (median) (800 mg, ITT, 18-Hour): 2.0 | VAS Score measured at Rest, % Reduction vs Placebo (800 mg, ITT, 18-Hour): 33.3% | VAS Score measured at Rest (median) (800 mg, ITT, 21-Hour): 2.0 | VAS Score measured at Rest, % Reduction vs Placebo (800 mg, ITT, 21-Hour): 42.9% | VAS Score measured at Rest (median) (800 mg, ITT, 24-Hour): 2.0 | VAS Score measured at Rest, % Reduction vs Placebo (800 mg, ITT, 24-Hour): 33.3% | VAS Score measured at Rest (median) (800 mg, ITT, 27-Hour): 2.2 | VAS Score measured at Rest (median) (800 mg, ITT, 30-Hour): 2.3 | VAS Score measured at Rest, % Reduction vs Placebo (800 mg, ITT, 30-Hour): 14.8% | VAS Score measured at Rest (median) (800 mg, ITT, 33-Hour): 2.3 | VAS Score measured at Rest, % Reduction vs Placebo (800 mg, ITT, 33-Hour): 28.1% | VAS Score measured at Rest (median) (800 mg, ITT, 36-Hour): 2.2 | VAS Score measured at Rest, % Reduction vs Placebo (800 mg, ITT, 36-Hour): 15.4% | VAS Score measured at Rest (median) (800 mg, ITT, 39-Hour): 2.7 | VAS Score measured at Rest, % Reduction vs Placebo (800 mg, ITT, 39-Hour): −50.0% | VAS Score measured at Rest (median) (800 mg, ITT, 42-Hour): 1.9 | VAS Score measured at Rest, % Reduction vs Placebo (800 mg, ITT, 42-Hour): 5.0% | VAS Score measured at Rest (median) (800 mg, ITT, 45-Hour): 1.9 | VAS Score measured at Rest, % Reduction vs Placebo (800 mg, ITT, 45-Hour): 5.0% | VAS Score measured at Rest (median) (800 mg, ITT, 48-Hour): 1.3 | VAS Score measured at Rest, % Reduction vs Placebo (800 mg, ITT, 48-Hour): 13.3%
